Where two headings read alike, the source gives them in different places.
Target: T1, estrogen receptor (Rattus norvegicus, UniProt P06211)
T1 construct: in rat uterine cytosol, which was obtained from ovariectomized uteri of Sprague-Dawley rats; from tissue; host or cells: uterine cytosol of ovariectomized Sprague-Dawley rats
T1 sequence (P06211 1-600): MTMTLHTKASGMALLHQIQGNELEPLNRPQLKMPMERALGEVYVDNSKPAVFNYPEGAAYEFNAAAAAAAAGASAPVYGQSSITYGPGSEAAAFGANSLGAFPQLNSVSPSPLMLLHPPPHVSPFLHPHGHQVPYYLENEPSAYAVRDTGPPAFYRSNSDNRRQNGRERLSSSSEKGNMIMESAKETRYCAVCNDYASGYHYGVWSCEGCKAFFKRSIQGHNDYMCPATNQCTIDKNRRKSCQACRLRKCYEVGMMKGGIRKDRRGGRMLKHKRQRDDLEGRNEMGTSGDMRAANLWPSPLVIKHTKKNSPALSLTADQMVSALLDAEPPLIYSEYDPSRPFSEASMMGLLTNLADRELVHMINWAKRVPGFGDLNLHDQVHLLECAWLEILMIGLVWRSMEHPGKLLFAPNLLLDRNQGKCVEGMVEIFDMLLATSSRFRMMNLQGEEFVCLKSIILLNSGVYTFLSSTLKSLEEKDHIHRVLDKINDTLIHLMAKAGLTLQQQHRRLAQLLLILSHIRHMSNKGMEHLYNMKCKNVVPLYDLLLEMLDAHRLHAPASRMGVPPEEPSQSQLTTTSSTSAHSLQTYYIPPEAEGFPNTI
Experiment: Competitive ER binding assay with [3H]E2 in rat uterine cytosol (NCTR)
Description: The log relative binding activity (RBA) data for these 130 structurally diverse compounds was used to train the CoSCoSA models. The data was produced at NCTR using a competitive ER binding assay with radiolabeled estradiol ([^3H]E2) in rat uterine cytosol, which was obtained from ovariectomized uteri of Sprague-Dawley rats. […] For each of the 130 compounds, the ^13C 2D ^13C—^13C COSY NMR experiment was simulated using the ACD Labs CNMR version 5.0 2D predictor software. The COSY NMR spectra could be saved as two tables per compound.

[1] = relative binding affinity vs 17-β-estradiol (RBA 100), rat uterine cytosol, 130 compound training set

Compound	Exp. Log(RBA) [1]	Exp. Log(RBA)
4-ethyl-7-OH-(p-meoxyphenol)-dihydro-1-benzopyran-2-one	−0.05	
4-hydroxytamoxifen		2.24
C[C@]12CC[C@@H]3c4ccc(O)cc4[C@@H](O)C[C@H]3[C@@H]1CC[C@@H]2O [1,3,5-Estratrien-3,6α-17β-triol]	−0.15	
C[Si](C)(O[Si](C)(C)c1ccccc1)c1ccccc1 [1,3-diphenyltetramethyldisiloxane]		−3.16
O=C(C(=O)c1ccc(O)cc1O)c1ccc(O)cc1O [2,2′,4,4′-tetrahydroxybenzil]		−0.68
Oc1ccc(Cl)cc1Cc1cc(Cl)ccc1O [2,2′-methylenebis(4-chlorophenol)]		−2.45
Oc1ccc(-c2cc(Cl)c(Cl)c(Cl)c2Cl)cc1 [2,3,4,5-tetraCl-4′-biphenylol]	−0.64	
O=C(c1ccccc1)c1ccc(O)cc1O [2,4-dihyroxybenzophenone]	−2.61	
Clc1ccc(-c2ccccc2Cl)cc1 [2,4′-dichlorobiphenyl]		−3.61
Oc1ccc(-c2cc(Cl)ccc2Cl)cc1 [2,5-dichloro-4′-biphenylol]		−1.44
CCC(c1ccc(O)cc1)C(CC)c1c(C)cc(O)cc1C (centres unmarked) [2,6-dimethylhexestrol]	1.11	
Oc1ccc(-c2ccccc2)c(Cl)c1 [2-Cl-4-biphenylol]	−2.77	
C[C@]12CC[C@@H]3c4cc(O)c(O)cc4CC[C@H]3[C@@H]1CC[C@@H]2O [2-hydroxyestradiol]		1.47
O=C(/C=C/c1ccc(O)cc1)c1ccc(O)cc1O [2′,4,4′-trihydroxychalcone]		−1.26
Oc1c(Cl)cc(-c2cc(Cl)c(O)c(Cl)c2)cc1Cl [3,3′,5,5′-tetraCl-4,4′-biphenyldiol]	−3.25	
CCC(c1ccc(O)c(O)c1)C(CC)c1ccc(O)c(O)c1 (centres unmarked) [3,3′-dihydroxyhestrol]	1.19	
O=c1c(O)c(-c2ccc(O)cc2)oc2ccc(O)cc12 [3,6,4′-trihydroxyflavone]	−0.35	
C[C@]12CC[C@@H]3c4ccccc4CC[C@H]3[C@@H]1CC[C@@H]2O [3-deoxyestradiol]	−0.3	
C[C@]12CC[C@@H]3c4ccccc4CC[C@H]3[C@@H]1CCC2=O [3-deoxyestrone]	−2.2	
CCc1cccc(O)c1 [3-ethylphenol]	−3.87	
COc1ccc2c(c1)CC[C@@H]1[C@@H]2CC[C@]2(C)[C@@H](O)[C@H](O)C[C@@H]12 [3-methylestriol]	−1.65	
Oc1cccc(-c2ccccc2)c1 [3-phenylphenol]		−3.44
C[C@]12CC[C@@H](O)C[C@@H]1CC[C@@H]1[C@@H]2CC[C@]2(C)[C@@H](O)CC[C@@H]12 [3α-androstanediol]		−2.67

Compound	Exp. Log(RBA) [1]	Exp. Log(RBA)
C[C@]12CC[C@H](O)C[C@@H]1CC[C@@H]1[C@@H]2CC[C@]2(C)[C@@H](O)CC[C@@H]12 [3β-androstanediol]		−0.92
O=c1c(-c2ccc(O)c(O)c2)coc2cc(O)ccc12 [3′,4′,7-trihydroxyisoflavone]	−2.35	
O=C1CC(c2cccc(O)c2)Oc2ccccc21 (centres unmarked) [3′-OH-flavanone]	−2.78	
Oc1ccc(CCc2ccc(O)cc2)cc1 [4,4′-(1,2-ethanediyl)bisphenol]	−1.44	
Oc1ccc(C=Cc2ccc(O)cc2)cc1 [4,4′-dihroxystilbene]	−0.55	
O=C(c1ccc(O)cc1)c1ccc(O)cc1 [4,4′-dihydroxybenzophenone]	−2.46	
O=S(=O)(c1ccc(O)cc1)c1ccc(O)cc1 [4,4′-sulfonyldiphenol]		−3.07
O=c1cc(-c2ccc(O)cc2)oc2ccc(O)cc12 [4,6-dihydroxyflavone]	−0.82	
Cc1cc(O)ccc1Cl [4-Cl-3-methylphenol]	−3.38	
Oc1ccc(-c2ccc(Cl)cc2)cc1 [4-Cl-4′-biphenylol]	−2.18	
O=C(/C=C/c1ccc(O)cc1)c1ccccc1 [4-OH-chalcone]	−2.43	
Oc1ccc(OCc2ccccc2)cc1 [4-benzyloxyphenol]		−3.44
CCCCCCCCCCCCc1ccc(O)cc1 [4-dodecylphenol]		−1.73
CCCCCCCOc1ccc(O)cc1 [4-heptyloxyphenol]	−2.88	
C[C@]12CC[C@@H]3c4ccc(O)c(O)c4CC[C@H]3[C@@H]1CC[C@@H]2O [4-hydroxyestradiol]		2.24
CCCCCCCCCc1ccc(O)cc1 [4-nonylphenol]		−1.53
Oc1ccc(CCc2ccccc2)cc1 [4-phenethylphenol]	−2.69	
CCC(C)(C)c1ccc(O)cc1 [4-tert-amylphenol]		−3.26
CC(C)(C)c1ccc(O)cc1 [4-tert-butylphenol]		−3.61
O=C(/C=C/c1ccccc1)c1ccc(O)cc1 [4′-OH-chalcone]	−2.43	
O=C1CC(c2ccc(O)cc2)Oc2ccccc21 (centres unmarked) [4′-hydroxyflavanone]	−2.65	
O=C1CC(c2ccccc2)Oc2ccc(O)cc21 (centres unmarked) [6-hydroxyflavanone]	−3.05	
O=c1cc(-c2ccccc2)oc2ccc(O)cc12 [6-hydroxyflavone]	−3.41	

Compound	Exp. Log(RBA) [1]	Exp. Log(RBA)
C[C@@]12CCC[C@H]1[C@@H]1CCc3cc(O)ccc3[C@H]1CC2 [17-deoxyestradiol]	1.14	
CCCCN(C)C(=O)CCCCCCCCCC[C@@H]1Cc2cc(O)ccc2[C@H]2CC[C@]3(C)[C@@H](O)CC[C@H]3[C@H]12 [ICI164384]	1.16	
C[C@]12CC[C@@H]3c4ccc(O)cc4C[C@@H](CCCCCCCCC[S+]([O-])CCCC(F)(F)C(F)(F)F)[C@H]3[C@@H]1CC[C@@H]2O (some centres unmarked) [ICI182780]		1.57
O=C1C=CC(=C(c2ccc(O)cc2)c2ccc(O)cc2)C=C1 [aurin]		−1.5
O=c1cc(-c2ccccc2)oc2cc(O)c(O)c(O)c12 [baicalein]		−3.35
O=C(OCc1ccccc1)c1ccc(O)cc1 [benzyl-4-hydroxybenzoate]	−2.54	
COc1ccc(-c2coc3cc(O)cc(O)c3c2=O)cc1 [biochanin A]	−2.37	
Oc1ccc(Cc2ccc(O)cc2)cc1 [bis-(4-hydroxyphenyl)methane]		−3.02
CC(C)(c1ccc(O)cc1)c1ccc(O)cc1 [bisphenol A]	−2.11	
CCC(C)(c1ccc(O)cc1)c1ccc(O)cc1 [bisphenol B]		−1.07
O=C(/C=C/c1ccccc1)c1ccccc1 [chalcone]		−2.82
O=c1c(-c2ccc(O)cc2)coc2cc(O)ccc12 [daidzein]		−1.65
C/C=C(/C(=C/C)c1ccc(O)cc1)c1ccc(O)cc1 [dienestrol]		1.57
CC/C(=C(/CC)c1ccc(OC)cc1)c1ccc(OC)cc1 [dietheylstilbestrol dimethyl ether]	−1.25	
CC/C(=C(/CC)c1ccc(OC)cc1)c1ccc(O)cc1 [diethylstilbestrol monomethyl ether]	1.31	
COc1cc(C(=C(Cl)Cl)c2ccc(O)cc2)ccc1O [dihydroxymethoxychlorolefin]		0.42
C/C(=C(/C)c1ccc(O)cc1)c1ccc(O)cc1 [dimethylstibestrol]	1.16	
CC(CCC(=O)O)(c1ccc(O)cc1)c1ccc(O)cc1 [diphenolic acid]		−3.13
CC[C@H]1c2ccc3cc(OC)ccc3c2CC[C@@]1(C)C(=O)O [doisynoestrol]	−2.74	
CC/C(=C(/c1ccc(OCCN(C)C)cc1)c1cccc(O)c1)c1ccccc1 [droloxifene]		1.18
Oc1ccc([C@H]2COc3cc(O)ccc3C2)cc1 [equol]		−0.82
CCOC(=O)c1ccc(O)cc1 [ethyl-4-hydrobenzoate]	−3.22	

From patent publication US7996156B2, “Methods for predicting properties of molecules” (priority 2002, dated 2011)
